Patent publication US10357576B2, “18F-labelled folate/antifolate analogues” (MERCK & CIE, priority 2012, dated 2019)

Columns and labels:
[1] = tested on: KB tumor xenografts; assay: Biodistribution studies in nude mice bearing KB tumor xenografts; type: in vivo, nude mice (CD-1 Foxn-1/nu)
Excerpt: In vivo experiments were approved by the local veterinarian department and conducted in accordance to the Swiss law of animal protection. Six to eight-week-old female, athymic nude mice (CD-1 Foxn-1/nu) were purchased from Charles River Laboratories (Sulzfeld, Germany). The animals were fed with a folate-deficient rodent diet starting 5 days prior to the tumor cell inoculation. Mice were inoculated with KB cells (5×10^6 cells in […] PBS) into the subcutis of each shoulder. Animal experiments were performed approximately 14 days after tumor cell inoculation. Biodistribution studies were performed in triplicate. [^18F]-3′-aza-2′-fluorofolic acid was diluted in PBS pH 7.4 to the desired radioactivity concentration (˜5 MBq per mouse) for immediate administration via a lateral tail vein.
[…] Selected tissues and organs were collected, weighed, and counted for radioactivity in a −counter. The results were listed as percentage of the injected dose per gram of tissue weight [% ID/g], using reference counts from a definite sample of the original injectate that was counted at the same time.
The obtained are summarized in Table 2 and represent the percentage injected dose per gram tissue [% ID/g] averaged from three or four animals (Table 2).

[2] = Stability experiments using liver microsomes (mouse); type: in vitro ADME; settings: 37° C., 1 h, NADPH regenerating system, radio-UPLC
Excerpt: General: Reagents and solvents were purchased from Sigma-Aldrich Chemie GmbH, Acros Organics or VWR International AG if nothing else is mentioned. All chemicals were used as supplied. Human and mouse (female CD-1) microsomes and the NADPH regenerating systems were purchased from BD biosciences.
(§1) Radio-UPLC: For stability studies, an ultra-performance liquid chromatography (UPLC™, Waters) system, equipped with an Acquity UPLC BEH C18 column (1.7 μm, 2.1×50 mm, Waters) and a coincidence detector (FlowStar LB513, Berthold) was used with following solvent system: eluent A was a NaH2PO4/Na2HPO4 buffer (0.05 M, pH 7.4) and eluent B was acetonitrile. A gradient from 0-4.0 min 100%-40% A, at a flow rate of 0.6 ml/min was used.
To a mixture of KH2PO4/K2HPO4 buffer (pH 7.4, 0.5 M, 200 μl), NADPH regenerating system A (50 μl), NADPH regenerating system B (10 μl), an aliquot of [^18F]-3′-aza-2′-fluorofolic acid (38 μl, approx. 15 MBq) was added and filled up with water (677 μl) to a volume of 975 μl and preincubated at 37° C. Then, mouse or human liver microsomes (20 mg/ml, 25 μl) were added and incubated at 37° C. After several time points (0, 20, 40 and 60 min) aliquots (100 μl) were drawn and the enzymatical reaction was stopped by purring the solution into ice-cold methanol (200 μl). […] Every time point was performed as a triplicate and analyzed on a radio-UPLC system. […]

[3] = Ex vivo metabolite studies in KB tumor bearing mice; settings: i.v., radio-UPLC
Description: as §1
For the determination of radiometabolites in vivo, 3′-aza-2′-[^18F]fluorofolic acid (60-70 MBq) was intravenously injected into KB tumor bearing mice (n=2). After 5 min, blood samples were drawn from the opposite vein and the animals were sacrificed 30 min after radiotracer injection. The whole blood, liver, tumor and urine were collected. Blood samples were centrifuged at 5000 g for 5 min at 4° C. The proteins of the plasma samples were precipitated by addition of the same volume of ice-cold methanol followed by centrifugation. The supernatants of the plasma and the urine sample were diluted with PBS buffer and analyzed by radio-UPLC. Liver and tumor tissue were homogenized in an equal volume of PBS using a PT 1200 C Polytron (Kinematica AG), respectively. After addition of the same volume of ice-cold MeOH, the mixture was centrifuged at 5000 g for 5 min and 4° C. The supernatant was cleared from remaining proteins by addition of ice-cold methanol, followed by centrifugation. The resulting supernatant fractions were diluted with PBS buffer and analyzed by radio-UPLC.

[4] = 60 min p.i. blockade (100 μg folic acid 10 min before radiotracer)

Nc1nc2ncc(CNc3ccc(C(=O)N[C@@H](CCC(=O)O)C(=O)O)c([18F])n3)nc2c(=O)[nH]1 [3′-aza-2′-[^18F]fluorofolic acid]
% ID/g in Blood ([1]; 30 min p.i., i.v.): 1.2 ± 0.3 % ID/g
% ID/g in Bone ([1]; 30 min p.i., i.v.): 2.1 ± 0.3 % ID/g
% ID/g in Feces ([1]; 30 min p.i., i.v.): 1.2 ± 0.2 % ID/g
% ID/g in Gallbladder ([1]; 30 min p.i., i.v.): 8.1 ± 2.9 % ID/g
% ID/g in Heart ([1]; 30 min p.i., i.v.): 2.1 ± 0.2 % ID/g
% ID/g in Intestine ([1]; 30 min p.i., i.v.): 1.4 ± 0.1 % ID/g
% ID/g in Kidneys ([1]; 30 min p.i., i.v.): 54.8 ± 6.1 % ID/g
% ID/g in Liver ([1]; 30 min p.i., i.v.): 13.7 ± 2.9 % ID/g
% ID/g in Lungs ([1]; 30 min p.i., i.v.): 2.0 ± 0.3 % ID/g
% ID/g in Muscle ([1]; 30 min p.i., i.v.): 1.7 ± 0.4 % ID/g
% ID/g in Salivary glands ([1]; 30 min p.i., i.v.): 9.0 ± 1.3 % ID/g
% ID/g in Spleen ([1]; 30 min p.i., i.v.): 1.3 ± 0.2 % ID/g
% ID/g in Stomach ([1]; 30 min p.i., i.v.): 2.8 ± 0.5 % ID/g
% ID/g in Tumor ([1]; 30 min p.i., i.v.): 11.7 ± 0.9 % ID/g
Ratio Tumor/Blood ([1]; 30 min p.i., i.v.): 11.1 ± 4.1
Ratio Tumor/Kidneys ([1]; 30 min p.i., i.v.): 0.2 ± 0.1
Ratio Tumor/Liver ([1]; 30 min p.i., i.v.): 0.9 ± 0.2
% ID/g in Blood [1, 4]: 0.8 ± 0.3 % ID/g
% ID/g in Bone [1, 4]: 0.6 ± 0.3 % ID/g
% ID/g in Feces [1, 4]: 6.0 ± 1.1 % ID/g
% ID/g in Gallbladder [1, 4]: 15.8 ± 9.3 % ID/g
% ID/g in Heart [1, 4]: 0.4 ± 0.2 % ID/g
% ID/g in Intestine [1, 4]: 1.3 ± 0.6 % ID/g
% ID/g in Kidneys [1, 4]: 5.9 ± 4.5 % ID/g
% ID/g in Liver [1, 4]: 10.9 ± 3.4 % ID/g
% ID/g in Lungs [1, 4]: 0.7 ± 0.3 % ID/g
% ID/g in Muscle [1, 4]: 0.3 ± 0.1 % ID/g
% ID/g in Salivary glands [1, 4]: 0.6 ± 0.2 % ID/g
% ID/g in Spleen [1, 4]: 0.4 ± 0.2 % ID/g
% ID/g in Stomach [1, 4]: 0.6 ± 0.3 % ID/g
% ID/g in Tumor [1, 4]: 1.7 ± 0.4 % ID/g
Ratio Tumor/Blood [1, 4]: 2.2 ± 0.3
Ratio Tumor/Kidneys [1, 4]: 0.4 ± 0.2
Ratio Tumor/Liver [1, 4]: 0.2 ± 0.1
% ID/g in Blood ([1]; 60 min p.i., i.v.): 0.6 ± 0.1 % ID/g
% ID/g in Bone ([1]; 60 min p.i., i.v.): 1.6 ± 0.3 % ID/g
% ID/g in Feces ([1]; 60 min p.i., i.v.): 3.0 ± 2.0 % ID/g
% ID/g in Gallbladder ([1]; 60 min p.i., i.v.): 8.4 ± 1.8 % ID/g
% ID/g in Heart ([1]; 60 min p.i., i.v.): 1.9 ± 0.3 % ID/g
% ID/g in Intestine ([1]; 60 min p.i., i.v.): 1.9 ± 0.2 % ID/g
% ID/g in Kidneys ([1]; 60 min p.i., i.v.): 53.6 ± 3.2 % ID/g
% ID/g in Liver ([1]; 60 min p.i., i.v.): 10.6 ± 0.9 % ID/g
% ID/g in Lungs ([1]; 60 min p.i., i.v.): 1.5 ± 0.2 % ID/g
% ID/g in Muscle ([1]; 60 min p.i., i.v.): 1.2 ± 0.2 % ID/g
% ID/g in Salivary glands ([1]; 60 min p.i., i.v.): 15.0 ± 6.1 % ID/g
% ID/g in Spleen ([1]; 60 min p.i., i.v.): 1.9 ± 0.1 % ID/g
% ID/g in Stomach ([1]; 60 min p.i., i.v.): 2.8 ± 0.9 % ID/g
% ID/g in Tumor ([1]; 60 min p.i., i.v.): 11.9 ± 1.7 % ID/g
Ratio Tumor/Blood ([1]; 60 min p.i., i.v.): 21.6 ± 2.3
Ratio Tumor/Kidneys ([1]; 60 min p.i., i.v.): 0.2 ± 0.1
Ratio Tumor/Liver ([1]; 60 min p.i., i.v.): 1.1 ± 0.2
% ID/g in Blood ([1]; 90 min p.i., i.v.): 0.6 ± 0.1 % ID/g
% ID/g in Bone ([1]; 90 min p.i., i.v.): 1.6 ± 0.3 % ID/g
% ID/g in Feces ([1]; 90 min p.i., i.v.): 1.8 ± 0.3 % ID/g
% ID/g in Gallbladder ([1]; 90 min p.i., i.v.): 9.3 ± 0.6 % ID/g
% ID/g in Heart ([1]; 90 min p.i., i.v.): 1.8 ± 0.1 % ID/g
% ID/g in Intestine ([1]; 90 min p.i., i.v.): 2.3 ± 0.4 % ID/g
% ID/g in Kidneys ([1]; 90 min p.i., i.v.): 57.3 ± 8.4 % ID/g
% ID/g in Liver ([1]; 90 min p.i., i.v.): 10.3 ± 2.4 % ID/g
% ID/g in Lungs ([1]; 90 min p.i., i.v.): 1.6 ± 0.3 % ID/g
% ID/g in Muscle ([1]; 90 min p.i., i.v.): 1.5 ± 0.4 % ID/g
% ID/g in Salivary glands ([1]; 90 min p.i., i.v.): 14.1 ± 0.9 % ID/g
% ID/g in Spleen ([1]; 90 min p.i., i.v.): 2.2 ± 0.2 % ID/g
% ID/g in Stomach ([1]; 90 min p.i., i.v.): 2.7 ± 0.1 % ID/g
% ID/g in Tumor ([1]; 90 min p.i., i.v.): 12.6 ± 1.8 % ID/g
Ratio Tumor/Blood ([1]; 90 min p.i., i.v.): 23.8 ± 4.1
Ratio Tumor/Kidneys ([1]; 90 min p.i., i.v.): 0.2 ± 0.1
Ratio Tumor/Liver ([1]; 90 min p.i., i.v.): 1.3 ± 0.4
Stability in mouse liver microsomes [2]: completely stable
Radiometabolites in liver ([3]; 30 min p.i.): signs of metabolism
Radiometabolites in tumor ([3]; 30 min p.i.): no detectable amounts of metabolites
Radiometabolites in urine ([3]; 30 min p.i.): no detectable amounts of metabolites
Radiometabolites in plasma ([3]; plasma sample 5 min p.i.): no detectable amounts of metabolites
Radiometabolites in plasma ([3]; plasma sample 30 min p.i.): no detectable amounts of metabolites
